The test system of assay [1] is P. falciparum Dd2-2D4 NCP26 selections S1-3. The assay can be described thus: ABS growth assay on bulk populations and clones from NCP26 resistance selections S1-3. The assay is classed as cell-based, Plasmodium falciparum. The settings on record: for EC50: Plasmodium falciparum; for Fold-change Resistance: independent experiments.
Experimental: In short, P. falciparum erythrocytic-stage parasites at 1% parasitemia and 1% hematocrit in RPMI + 0.5% Albumax were seeded at 40 μL/well in 384-well plates with test compounds in triplicate, dose-response format with 10 μM dihydroartemisinin as a kill-control and blank (no compound) wells as a growth-control. […] After 72 h, growth was quantified by measuring fluorescence (Molecular Devices SpectraMax iD5) following SYBR Green 1 staining. Data were analyzed in Excel and plotted in PRISM (V. 8.4.3–9.1.0, GraphPad).
This cycle was repeated for ~50 generations (~100 days), corresponding to 5–6 cycles of drug pressure.
Clonal parasites were isolated from each selection flask by limiting dilution of ring stage parasites in 96-well plates to an average of 0.8 and 0.2 parasites per well.
The subject of a further assay is P. falciparum Dd2-2D4. Briefly: P. falciparum asexual blood stage (ABS) growth assay, SYBR Green, 72 h, wild-type parasites. The settings on record: for EC50: Plasmodium falciparum. The assay is classed as cell-based, Plasmodium falciparum.
The target of another assay is HsProRS (Homo sapiens, UniProt P07814). Briefly: TR-FRET ligand displacement assay with tracer MAT379 (CoraFluor-1-Halo and anti-His6 antibody formats). The assay is classed as binding. On the set-up: made in house; host or cells: E. coli SoluBL-21. As to conditions: for normalized TR-FRET signal (Fig 2k): 15 pM HT-HsProRS; for normalized TR-FRET signal (dose-response replicates): SI Fig 15, titrating, listed as ProSA (25). In general terms: In TR-FRET formats the signal depends on donor and acceptor labels being close together.
HsProRS, sequence (P07814 996-1512): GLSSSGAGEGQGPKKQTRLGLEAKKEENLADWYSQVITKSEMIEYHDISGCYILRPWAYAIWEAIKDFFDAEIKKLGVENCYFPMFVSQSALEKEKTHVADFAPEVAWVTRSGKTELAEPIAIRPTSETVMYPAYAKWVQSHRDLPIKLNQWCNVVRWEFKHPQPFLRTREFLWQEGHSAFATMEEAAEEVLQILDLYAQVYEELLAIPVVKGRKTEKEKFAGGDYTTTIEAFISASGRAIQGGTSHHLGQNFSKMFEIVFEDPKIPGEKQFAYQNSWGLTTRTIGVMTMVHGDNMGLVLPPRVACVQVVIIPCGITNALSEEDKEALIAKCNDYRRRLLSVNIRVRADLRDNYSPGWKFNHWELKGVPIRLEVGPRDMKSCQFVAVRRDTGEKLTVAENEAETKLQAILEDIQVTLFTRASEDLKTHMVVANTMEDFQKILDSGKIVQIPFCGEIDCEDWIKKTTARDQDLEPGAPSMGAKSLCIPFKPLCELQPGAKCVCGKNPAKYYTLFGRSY

Setting [2] is: DD2, cell line S1 - Clone A8, read-out: EC50 [nM] mean.
Setting [3] is: DD2, cell line S2 - Clone A3, read-out: EC50 [nM] mean.
The mark [4] stands for this setting: DD2, cell line S2 - Clone B9, read-out: EC50 [nM] mean.
Where [5] appears, read: DD2, cell line S2 - Clone C5, read-out: EC50 [nM] mean.
The mark [6] stands for this setting: DD2, cell line S3 - Clone B3, read-out: EC50 [nM] mean.
The mark [7] stands for this setting: DD2, cell line S3 - Clone B7, read-out: EC50 [nM] mean.
The mark [8] stands for this setting: DD2, read-out: EC50 [nM] mean, cell line S3 - Clone B2.

The structures appear in SMILES notation. Values joined by “and” are separate entries in the source; they are usually repeats but may differ in a detail not shown here. Equal values may be shown once. Read-outs that look alike come from different tables or passages of the source.

Consider `C[C@H]1[C@@H](O)O[C@@H]2O[C@@]3(C)CC[C@H]4[C@H](C)CC[C@@H]1[C@@]24OO3` [DHA, dihydroartemisinin, reference compound], for which the EC50 in assay [1] (setting [2]) turned out to be 3.4 nM; in assay [1] (DD2, cell line S1 - bulk population, read-out: EC50 [nM] mean), 4.5 nM; in assay [1] (setting [3]) it was 2 nM; in assay [1] (setting [4]) it was 10.1 nM; in assay [1] (setting [5]), 3.48 nM; in assay [1] (DD2, cell line S2 - bulk population, read-out: EC50 [nM] mean) it was 3.55 nM. The EC50 was found to be 3.51 nM in assay [1] (setting [6]); 3.12 nM in assay [1] (setting [7]); 3.44 nM in assay [1] (DD2, cell line S3 - bulk population, read-out: EC50 [nM] mean); 8.34 nM in assay [1] (setting [8]); 4.95 nM with P. falciparum Dd2-2D4 (cell line Dd2-2D4 (parent), read-out: EC50 [nM] mean).

`C[C@H]1[C@@H](O)O[C@@H]2O[C@@]3(C)CC[C@H]4[C@H](C)CC[C@@H]1[C@@]24OO3` [Dihydroartemesinin (DHA)]: the “Fold-change Resistance” value is 0.68 and 0.97 in assay [1] (S1 - Clone A8); 2.04 in assay [1] (S2 - Clone B9); 0.71 and 0.6 in assay [1] (S3 - Clone B3); 0.78 and 1.22 and 1 in the assay with P. falciparum Dd2-2D4 (Dd2-2D4, independent experiments).

Regarding `Nc1ncnc2c1ncn2[C@@H]1O[C@H](COS(=O)(=O)NC(=O)[C@@H]2CCCN2)[C@@H](O)[C@H]1O` [ProSA, reference compound], the “normalized TR-FRET signal (Fig 2k)” value on HsProRS (Log[inhibitor] (M) -10.319) was 9.27E-01 and 5.96E-01 and 5.68E-01 and 6.24E-01 and 7.95E-01 and 4.77E-01; on HsProRS (Log[inhibitor] (M) -10.921), 1.19E+00 and 1.45E+00 and 8.99E-01 and 1.44E+00; at HsProRS (Log[inhibitor] (M) -11.098), 1.29E+00 and 1.17E+00 and 7.99E-01 and 9.06E-01. Besides, the “normalized TR-FRET signal (Fig 2i)” value was 2.86E-01 and 2.69E-01 and 2.23E-01 at HsProRS (Log[inhibitor] (M) -8.208); 5.48E-01 and 5.47E-01 and 6.11E-01 at HsProRS (Log[inhibitor] (M) -8.509); 8.53E-01 and 8.04E-01 and 8.09E-01 on HsProRS (Log[inhibitor] (M) -8.796); 9.05E-01 and 8.48E-01 and 8.77E-01 on HsProRS (Log[inhibitor] (M) -9.108); 8.95E-01 at HsProRS (Log[inhibitor] (M) -9.409). Besides, the “normalized TR-FRET signal (Fig 2j)” value at HsProRS (Log[inhibitor] (M) -8.208) is 2.20E-01 and 2.14E-01 and 2.31E-01; at HsProRS (Log[inhibitor] (M) -8.509), 6.99E-01 and 6.28E-01 and 5.28E-01; at HsProRS (Log[inhibitor] (M) -8.796), 7.16E-01 and 7.19E-01 and 8.75E-01; on HsProRS (Log[inhibitor] (M) -9.108), 8.43E-01 and 8.74E-01 and 8.91E-01; on HsProRS (Log[inhibitor] (M) -10.602), 8.90E-01. The “normalized TR-FRET signal (dose-response replicates)” value on HsProRS (Log[inhibitor] (M) -7.601) is -6.47E-02 and -3.87E-03 and 4.40E-03; on HsProRS (Log[inhibitor] (M) -7.904), 4.29E-02 and -1.08E-01 and 6.52E-02; at HsProRS (Log[inhibitor] (M) -8.208), 2.09E-01 and 4.52E-01 and 3.79E-01; on HsProRS (Log[inhibitor] (M) -8.509) it was 6.59E-01 and 7.25E-01 and 6.81E-01; on HsProRS (Log[inhibitor] (M) -8.796) it was 8.90E-01 and 6.94E-01 and 8.02E-01; at HsProRS (Log[inhibitor] (M) -9.108) it was 8.78E-01 and 8.82E-01. The “normalized TR-FRET signal (dose-response replicates)” value at HsProRS (Log[inhibitor] (M) -10.301) was 9.09E-01; on HsProRS (Log[inhibitor] (M) -10.602), 1.29E+00; on HsProRS (Log[inhibitor] (M) -11) it was 9.02E-01. Further, the EC50 in assay [1] (setting [2]) came out at 258 nM; in assay [1] (setting [3]), 209 nM; in assay [1] (setting [4]), 267 nM; in assay [1] (setting [5]), 243 nM; in assay [1] (setting [6]) it was 593 nM; in assay [1] (setting [7]), 909 nM. Also, the EC50 in assay [1] (setting [8]) is 838 nM; in the assay on P. falciparum Dd2-2D4 (DD2, SI Fig 16b, values on -log scale, read-out: ABS - Dd2-2D4 (converted)), 151 nM.

The values are drawn from paper PMC9403976, “Elucidating the path to Plasmodium prolyl-tRNA synthetase inhibitors that overcome halofuginone resistance” (Nature Communications, 2022).
